Experimental data published in ChEMBL document CHEMBL5113491, “Discovery of N-benzylarylamide derivatives as novel tubulin polymerization inhibitors capable of activating the Hippo pathway” (Eur J Med Chem, 2022).
Active and inactive are the calls of the source.

Columns and labels:
[1] = tested on: MGC-803; test: Induction of cell cycle arrest in human MGC-803 cells assessed as increase in G2/M phase cells measured after 24 hrs by flow cytometry; format: functional, cell-based; settings: dose 15-45 nmol/L, DDE = dose-dependent effect
[2] = tested on: SGC-7901; test: Induction of apoptosis in human SGC-7901 cells assessed as decrease in Bcl-xl protein expression measured after 48 hrs by Western blot analysis; format: functional, cell-based; settings: dose 15-45 nmol/L, DDE = dose-dependent effect
[3] = tested on: MGC-803; test: Induction of apoptosis in human MGC-803 cells assessed as decrease in Mcl-1 protein expression measured after 48 hrs by Western blot analysis; format: functional, cell-based; settings: dose 15-45 nmol/L, DDE = dose-dependent effect
[4] = Induction of cell apoptosis in human SGC-7901 cells assessed as increase in apoptotic cells at 45 nmol/L measured after 48 hrs by Annexin V/PI staining based flow cytometric analysis (reference value: 9.28%); format: functional
[5] = tested on: MGC-803; test: Induction of cell apoptosis in human MGC-803 cells assessed as increase in apoptotic cells measured after 48 hrs by Annexin V/PI staining based flow cytometric analysis; format: functional; settings: dose 15-45 nmol/L, DDE = dose-dependent effect
[6] = tested on: PC-3; test: Antiproliferative activity against human PC-3 cells assessed as inhibition of cell growth measured after 48 hrs by MTT assay; format: functional, cell-based; settings: PC-3, 48 h
[7] = tested on: TE-1; test: Antiproliferative activity against human TE-1 cells assessed as inhibition of cell growth measured after 48 hrs by MTT assay; format: functional, cell-based; settings: TE-1, 48 h
[8] = tested on: MGC-803; test: Induction of apoptosis in human MGC-803 cells assessed as increase in cleaved caspase 7 expression at 15 to 45 nmol/L measured after 48 hrs by Western blot analysis; format: functional, cell-based; settings: dose 15-45 nmol/L
[9] = tested on: ECa-109 cell line; test: Antiproliferative activity against human EC109 cells assessed as inhibition of cell growth measured after 48 hrs by MTT assay; format: functional, cell-based; settings: ECa-109, 48 h
[10] = tested on: SGC-7901; test: Induction of apoptosis in human SGC-7901 cells assessed as increase in cleaved PARP expression at 15 to 45 nmol/L measured after 48 hrs by Western blot analysis; format: functional, cell-based; settings: dose 15-45 nmol/L
[11] = tested on: MGC-803; test: Induction of morphological changes in human MGC-803 cells assessed as decrease in density at 15 to 45 nmol/L measured after 48 hrs by bright field microscopic analysis; format: functional, cell-based; settings: dose 15-45 nmol/L
[12] = tested on: MGC-803; test: Downregulation of YAP protein expression in human MGC-803 cells measured after 48 hrs by Western blot analysis; format: functional, cell-based; settings: dose 15-45 nmol/L, DDE = dose-dependent effect
[13] = tested on: MGC-803; test: Induction of apoptosis in human MGC-803 cells assessed as increase in cleaved PARP expression at 15 to 45 nmol/L measured after 48 hrs by Western blot analysis; format: functional, cell-based; settings: dose 15-45 nmol/L
[14] = tested on: SGC-7901; test: Induction of cell apoptosis in human SGC-7901 cells assessed as increase in apoptotic cells measured after 48 hrs by Annexin V/PI staining based flow cytometric analysis; format: functional; settings: dose 15-45 nmol/L, DDE = dose-dependent effect
[15] = tested on: MGC-803; test: Induction of apoptosis in human MGC-803 cells assessed as decrease in Bcl-xl protein expression measured after 48 hrs by Western blot analysis; format: functional, cell-based; settings: dose 15-45 nmol/L, DDE = dose-dependent effect
[16] = molecular target: Tubulin (Homo sapiens) (UniProt P68371+Q9H4B7+P0DPH7+P68366+Q13509+Q71U36+P04350+Q3ZCM7+P07437+P68363+Q9BQE3+Q6PEY2+Q13885+Q9BVA1+Q9BUF5); test: Induction of microtubule disruption in human SGC-7901 cells measured after 48 hrs by DAPI staining based immunofluorescence assay; format: cell-based; settings: dose 15-45 nmol/L, DDE = dose-dependent effect
[17] = tested on: SGC-7901; test: Downregulation of Axl protein expression in human SGC-7901 cells at 15 to 45 nmol/L measured after 48 hrs by Western blot analysis; format: functional, cell-based; settings: dose 15-45 nmol/L
[18] = tested on: SGC-7901; test: Antiproliferative activity against human SGC-7901 cells assessed as inhibition of cell growth measured after 48 hrs by MTT assay; format: functional, cell-based; settings: SGC-7901, 48 h
[19] = tested on: SGC-7901; test: Activation of LATS in human SGC-7901 cells assessed as increase in LATS phosphorylation measured after 48 hrs by Western blot analysis; format: cell-based; settings: filed as activator, dose 15-45 nmol/L, DDE = dose-dependent effect
[20] = molecular target: Tubulin beta (Homo sapiens) (UniProt P68371+Q9H4B7+Q13509+P04350+Q3ZCM7+P07437+Q13885+Q9BVA1+Q9BUF5+A6NNZ2); test: Binding affinity to beta-tubulin colchicine binding site in human SGC-7901 cells assessed as inhibition of EBI-beta-tubulin adduct band formation preincubated for 2 hrs followed by EBI addition and measured after 2 hrs by EBI competition based Western blotting analysis; format: cell-based; settings: dose 1-10 µM, time 4.0 hrs, DDE = dose-dependent effect
[21] = tested on: MGC-803; test: Induction of G2/M phase cell cycle arrest in human MGC-803 cells assessed as decrease in cyclin A1 expression at 15 to 45 nmol/L measured after 48 hrs by Western blot analysis; format: functional, cell-based; settings: dose 15-45 nmol/L
[22] = tested on: MGC-803; test: Activation of LATS in human MGC-803 cells assessed as increase in LATS phosphorylation measured after 48 hrs by Western blot analysis; format: cell-based; settings: filed as activator, dose 15-45 nmol/L, DDE = dose-dependent effect
[23] = tested on: SGC-7901; test: Antiproliferative activity against human SGC-7901 cells assessed as inhibition of cell growth at 15 to 45 […] by MTT assay; format: functional, cell-based; settings: dose 15-45 µmol/L, time <= 72.0 hrs, TDE = time-dependent effect
[24] = tested on: MGC-803; test: Activation of MST in human MGC-803 cells assessed as increase in MST phosphorylation measured after 48 hrs by Western blot analysis; format: cell-based; settings: filed as activator, dose 15-45 nmol/L, DDE = dose-dependent effect
[25] = tested on: SGC-7901; test: Induction of cell cycle arrest in human SGC-7901 cells assessed as increase in G2/M phase cells at 45 nmol/L measured after 24 hrs by flow cytometry (reference value: 7.04%); format: functional
[26] = tested on: MGC-803; test: Induction of G2/M phase cell cycle arrest in human MGC-803 cells assessed as decrease in p-cdc2 (T161) expression at 15 to 45 nmol/L measured after 48 hrs by Western blot analysis; format: functional, cell-based; settings: dose 15-45 nmol/L
[27] = tested on: MGC-803; test: Induction of morphological changes in human MGC-803 cells assessed as increase in proportion of dead cells at 15 to 45 nmol/L measured after 48 hrs by calcein-AM/PI staining based microscopic analysis; format: functional, cell-based; settings: dose 15-45 nmol/L
[28] = tested on: SGC-7901; test: Induction of apoptosis in human SGC-7901 cells assessed as increase in cleaved caspase 7 expression at 15 to 45 nmol/L measured after 48 hrs by Western blot analysis; format: functional, cell-based; settings: dose 15-45 nmol/L
[29] = tested on: SGC-7901; test: Induction of morphological changes in human SGC-7901 cells assessed as decrease in density at 15 to 45 nmol/L measured after 48 hrs by bright field microscopic analysis; format: functional, cell-based; settings: dose 15-45 nmol/L
[30] = tested on: MGC-803; test: Induction of G2/M phase cell cycle arrest in human MGC-803 cells assessed as decrease in cyclin B1 expression at 15 to 45 nmol/L measured after 48 hrs by Western blot analysis; format: functional, cell-based; settings: dose 15-45 nmol/L
[31] = tested on: NCI-H520; test: Antiproliferative activity against human NCI-H520 cells assessed as inhibition of cell growth measured after 48 hrs by MTT assay; format: functional, cell-based; settings: NCI-H520, 48 h
[32] = tested on: MGC-803; test: Downregulation of Axl protein expression in human MGC-803 cells at 15 to 45 nmol/L measured after 48 hrs by Western blot analysis; format: functional, cell-based; settings: dose 15-45 nmol/L
[33] = Induction of cell apoptosis in human MGC-803 cells assessed as increase in apoptotic cells at 45 nmol/L measured after 48 hrs by Annexin V/PI staining based flow cytometric analysis (reference value: 21.96%); format: functional
[34] = tested on: SGC-7901; test: Induction of G2/M phase cell cycle arrest in human SGC-7901 cells assessed as decrease in cyclin A1 expression at 15 to 45 nmol/L measured after 48 hrs by Western blot analysis; format: functional, cell-based; settings: dose 15-45 nmol/L

C/C=C/C(=O)N(Cc1ccc(OC)c(O)c1)c1cc(OC)c(OC)c(OC)c1
80.89%: Activity [25]
76.08%: Activity [33]
85 nM: IC50 [9]
94 nM: IC50 [7]
63.51%: Activity [4]
55 nM: IC50 [6]
25 nM: IC50 [18]
active: Activity [1] Dde | Activity [2] Dde | Activity [3] Dde | Activity [5] Dde | Activity [8] | Activity [10] | Activity [11] | Activity [12] Dde | Activity [13] | Activity [14] Dde | Activity [15] Dde | Activity [16] Dde | Activity [17] | Activity [19] Dde | Activity [20] Dde | Activity [21] | Activity [22] Dde | Activity [23] Tde | Activity [24] Dde | Activity [26] | Activity [27] | Activity [28] | Activity [29] | Activity [30] | Activity [32] | Activity [34]
52 nM: IC50 [31]
